# Measurements published in patent US8404646B2, “Methods for preventing or treating mitochondrial permeability transition” (Cornell Research Foundation, Inc., priority 2003, dated 2013).
# “Also recorded” adds a separate entry of the source. Non-standard residues stand in square brackets, D forms with d. Residues, ends and D or L forms follow the SMILES beside them. Dmt = Cc1cc(O)cc(C)c1C[C@H](N)C(=O)O
# How the values were obtained:
# [1] = system: mitochondrial permeability transition (MPT) in isolated mitochondria; experiment: Mitochondrial membrane potential and MPT measured with TMRM; type: biochemical, mouse; conditions: pretreatment 10 μM
# Experimental: In addition to having no direct effect on mitochondrial potential, [Dmt^1]DALDA was able to protect against MPT induced by Ca^2+ overload.
# 3-Nitropropionic acid (3NP) is an irreversible inhibitor of succinate dehydrogenase in complex II of the electron transport chain. Addition of 3NP (1 mM) to isolated mitochondria caused dissipation of mitochondrial potential and onset of MPT (FIG. 2C).
# [2] = system: isolated mitochondria; experiment: Mitochondrial swelling (absorbance 540 nm or light scattering 570 nm); type: biochemical, mouse; conditions: 50 μM peptide, light scattering at 570 nm
# Experimental: (§1) MPT pore opening results in mitochondrial swelling. We examined the effects of [Dmt^1]DALDA on mitochondrial swelling by measuring reduction in absorbance at 540 nm (A540). The mitochondrial suspension was then centrifuged and cytochrome c in the mitochondrial pellet and supernatant determined by a commercially-available ELISA kit.
# (§2) The methods for study are as described above for SS-02. In this example, mitochondrial swelling was measured using light scattering monitored at 570 nm.
# [3] = system: isolated mitochondria; experiment: Cytochrome c release from isolated mitochondria (ELISA); type: biochemical, mouse; conditions: Ca2+ overload
# Experimental: as §1, §2
# [4] = system: isolated perfused guinea pig heart; experiment: Ischemia-reperfusion myocardial stunning in isolated perfused heart (Langendorff); conditions: 1 nM
# Experimental: Guinea pig hearts were rapidly isolated, and the aorta was cannulated in situ and perfused in a retrograde fashion with an oxygenated Krebs-Henseleit solution (pH 7.4) at 34° C. The heart was then excised, mounted on a modified Langendorff perfusion apparatus, and perfused at constant pressure (40 cm H2O). Contractile force was measured with a small hook inserted into the apex of the left ventricle and the silk ligature tightly connected to a force-displacement transducer. Coronary flow was measured by timed collection of pulmonary artery effluent.
# Reperfusion was carried out with the same solution used prior to ischemia.
# [5] = system: N2A cells; experiment: tBHP-induced mitochondrial depolarization (TMRM, confocal); type: cell-based; conditions: 50 μM tBHP, 1 nM peptide, 6 h
# Experimental: FIG. 7. SS-31 protected against tBHP-induced mitochondrial depolarization and viability. N2A cells were plated in glass bottom dishes and treated with (A) control, or with (B) 50 μM tBHP, alone or with (e) 1 nM SS-31, for 6 hours. Cells were loaded with TMRM (20 nM) and imaged by confocal laser scanning microscopy using ex/em of 552/570 nm.
# To investigate whether SS-31 prevents mitochondria) depolarization caused by tBHP, N2A cells were treated with 50 μM tBHP for 6 h.
# [6] = system: Sprague-Dawley rats; experiment: Myocardial infarction/reperfusion, area at risk and area of infarction; type: in vivo, rat; conditions: 3 mg/kg IP 30 min before ligation and 5 min before reperfusion; 1 h ischemia, 1 h reperfusion
# Experimental: (§3) Adult male […] rats (F344 strain, National Institute of Aging, maintained by Harian Sprague-Dawley Inc.), weighting between 285 and 425 gm, were used. […]
# After anesthesia with ketamine (90 mg/kg IP) and xylazine (4 mg/kg IP), a tracheotomy was performed, and the rat was intubated with polyethylene tube and ventilated (Harvard Rodent Ventilator model 683) with room air and a tidal volume of 0.65 ml/100 gm of body weight at 90 breaths per minute. […] Peripheral limb electrodes were inserted subcutaneously and electrocardiogram was monitored throughout the procedure. […]
# At the end of reperfusion, the left coronary artery was briefly re-occluded and Evans blue dye solution (2 ml of 2%, Sigma) was slowly injected into the jugular vein to distinguish the perfused area (blue staining) from the area at risk (no staining). […] After a 14-day formalin immersion, the slices were scanned again and all scanned areas were quantified with NIH Imagesoftware. […]
# [7] = system: Sprague-Dawley rats; experiment: Assessment of arrhythmias in infarction/reperfusion; type: in vivo, rat; conditions: 3 mg/kg IP twice, entire study period
# Experimental: as §3
# An ECG was recorded continuously from a standard lead II (AC AMP 700) inserted into the limbs of all rats. […] The cardiac arrhythmias were monitored and assessed in accordance with the Lambeth Convention. […] A validated score was used to quantify the severity of cardiac arrhythmias. […]
# All values are expressed as mean±standard error of mean (S.E.M.). […] Differences among groups in body weight, heart rate, arrhythmia, area at risk as a percentage of the left ventricle, and area of infarction as a percentage of the area at risk were analyzed using ANOVA. If significant differences were detected, comparisons between the control group and the 2 treatment groups were conducted using the Mann-Whitney U-test. […]
# [8] = Body weight and heart rate during the infarction/reperfusion experiment; type: in vivo, rat
# Experimental: Adult male […] rats (F344 strain, National Institute of Aging, maintained by Harian Sprague-Dawley Inc.), weighting between 285 and 425 gm, were used. Twenty-four rats (n=8/group) were randomly assigned to one of three groups: (1) Control group was given 0.4 ml of saline as an intra-peritoneal (IP) injection 30 minutes before the ligation of left anterior descending coronary artery, followed by same IP dose injection 5 minutes before reperfusion; (2) SS-31 group was treated with SS-31 (3 mg/kg dissolved in 0.4 ml of saline) as an IP injection 30 minutes before the ligation followed by same IP dose injection as maintenance 5 minutes before reperfusion; and (3) SS-20 group was treated with SS-20 (3 mg/kg dissolved in 0.4 ml of saline) as an IP injection 30 minutes before the ligation followed by same dose IP injection as maintenance just 5 minutes before reperfusion. Also, Sham-operated rats (n=3) were used to account for possible effects related to the surgical protocol. All procedures were performed in a blinded manner, with the groups assigned letters and their identities unknown to the operators. Likewise, the two independent investigators analyzing the data were blind to the treatment assignments.
# After anesthesia with ketamine (90 mg/kg IP) and xylazine (4 mg/kg IP), a tracheotomy was performed, and the rat was intubated with polyethylene tube and ventilated (Harvard Rodent Ventilator model 683) with room air and a tidal volume of 0.65 ml/100 gm of body weight at 90 breaths per minute. Body temperature was maintained at 37° C. by using a heated operating table. The internal jugular vein was surgically exposed and a polyethylene tube was inserted for Evans blue dye solution injection. Peripheral limb electrodes were inserted subcutaneously and electrocardiogram was monitored throughout the procedure.
# An ECG was recorded continuously from a standard lead II (AC AMP 700) inserted into the limbs of all rats. The ECG was printed at 25 mm/second. The cardiac arrhythmias were monitored and assessed in accordance with the Lambeth Convention. The assessment was performed in a blinded manner using the original paper recordings. A validated score was used to quantify the severity of cardiac arrhythmias. The score consisted of six types: 0, no ventricular extrasystoles (VES), ventricular tachycardia (VT) or ventricular fibrillation (VF); 1=VES; 2=one to five episodes of VT (more than four coupled VES); 3=more than five episodes of VT and/or one VF; 4=two to five episodes of VF; 5=more than five episodes of VF.
# All values are expressed as mean±standard error of mean (S.E.M.). Statistical analyses were performed using SPSS version 10. Differences among groups in body weight, heart rate, arrhythmia, area at risk as a percentage of the left ventricle, and area of infarction as a percentage of the area at risk were analyzed using ANOVA. If significant differences were detected, comparisons between the control group and the 2 treatment groups were conducted using the Mann-Whitney U-test. A two-tailed p<0.05 was regarded as significant.
structure (smiles),measurement,setting,value
"Cc1cc(O)cc(C)c1C[C@H](NC(=O)[C@H](N)CCCNC(=N)N)C(=O)N[C@@H](CCCCN)C(=O)N[C@@H](Cc1ccccc1)C(N)=O [SS-31, D-Arg-2′6′Dmt-Lys-Phe-NH2] (H-[dR][Dmt]KF-NH2; N-terminus assumed)",MPT induced by Ca2+ overload,[1],same ability to protect; also recorded: prevents onset of MPT
same,mitochondrial swelling induced by Ca2+,[2],same ability to protect; also recorded: inhibited mitochondrial swelling
same,Ca2+-induced release of cytochrome c,[3],same ability to protect
same,cardiac stunning,[4],complete inhibition of cardiac stunning
same,coronary flow throughout reperfusion,[4],well-sustained
same,heart rate,[4],no decrease
same,myocardial contractile force during ischemia-reperfusion,[4]; 30 min global ischemia,tolerated ischemia much better than buffer-treated hearts; also recorded: protects myocardial contractile force
same,tBHP-induced loss of mitochondrial potential (TMRM fluorescence),[5],completely blocked; also recorded: protected
same,AAR/LV ratio (area at risk relative to left ventricle),[6],55.9±1.4%
same,AI/AAR ratio (area of infarction as percentage of area at risk),[6],53.9±1.1%
same,Severity and occurrence rate of cardiac arrhythmias (score),[7],5 points
same,Heart Rate Baseline,[8]; Baseline,257 ± 10
same,Heart Rate Ischemia,[8]; first column,184 ± 14
same,Heart Rate Ischemia,[8]; second column,169 ± 15
same,Heart Rate Open chest,[8]; Open chest,236 ± 8
same,Heart Rate Reperfusion,[8]; first column,161 ± 12
same,Heart Rate Reperfusion,[8]; second column,164 ± 13
